Data from PubChem BioAssay AID330 (DTP/NCI, 2004).
Several values for one entry are separate records, joined by “and”; a condition that tells them apart may be missing. Equal values may be shown once. Toxic doses and inconclusive results are not listed. The calls were made as follows: active = survival T/C of 150% or more; inactive = T/C below 125% in these data.

System: P388 leukemia ip, CD2F1 mice, survival T/C
Assay: NCI In Vivo Anticancer Drug Screen. Data for tumor model P388 Leukemia (intraperitoneal) in CD2F1 (CDF1) mice
Details: endpoint: median survival time, higher = longer survival
How it was run: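 Mice carrying the transplanted tumor received test compound or vehicle. Survival was recorded in each group, and the value is the treated-group measurement divided by that of the vehicle-treated control group.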

[1] = dose: 60.0 mg/kg/injection, schedule: Q01DX005 (ip), vehicle: saline with Tween-80
[2] = dose: 120.0 mg/kg/injection, schedule: Q01DX005 (ip), vehicle: saline with Tween-80
[3] = dose: 50.0 mg/kg/injection, schedule: Q01DX005 (ip), vehicle: saline with Tween-80
[4] = dose: 100.0 mg/kg/injection, schedule: Q01DX005 (ip), vehicle: saline with Tween-80
[5] = dose: 200.0 mg/kg/injection, schedule: Q01DX005 (ip), vehicle: saline with Tween-80
[6] = dose: 50.0 mg/kg/injection, schedule: Q01DX005 (ip), vehicle: Klucel (hydroxypropylcellulose) (HPC)
[7] = dose: 100.0 mg/kg/injection, schedule: Q01DX005 (ip), vehicle: Klucel (hydroxypropylcellulose) (HPC)
[8] = dose: 200.0 mg/kg/injection, schedule: Q01DX005 (ip), vehicle: Klucel (hydroxypropylcellulose) (HPC)
[9] = dose: 60.0 mg/kg/injection, schedule: Q01DX005 (ip), vehicle: Klucel (hydroxypropylcellulose) (HPC)

Measured: T/C

NC(=O)c1[nH]nc(C2OC(CO)C(O)C2O)c1O (stereo not drawn)
inactive: dose: 0.31 mg/kg/injection, schedule: Q01DX009 (ip), vehicle: saline 109 % of control | dose: 0.62 mg/kg/injection, schedule: Q01DX009 (ip), vehicle: saline 122 % of control | dose: 0.67 mg/kg/injection, schedule: Q01DX009 (ip), vehicle: saline 124 % of control | dose: 1.0 mg/kg/injection, schedule: Q04DX003 (ip), vehicle: saline 108 % of control | dose: 2.0 mg/kg/injection, schedule: Q04DX003 (ip), vehicle: saline 113 % of control | dose: 3.0 mg/kg/injection, schedule: Q01DX009 (ip), vehicle: saline 107 % of control | dose: 3.0 mg/kg/injection, schedule: Q04DX003 (ip), vehicle: saline 113 % of control | dose: 4.0 mg/kg/injection, schedule: Q04DX003 (ip), vehicle: saline 120 % of control | dose: 4.4 mg/kg/injection, schedule: Q04DX003 (ip), vehicle: saline 115 % of control | dose: 6.7 mg/kg/injection, schedule: Q04DX003 (ip), vehicle: saline 115 % of control | dose: 8.0 mg/kg/injection, schedule: Q04DX003 (ip), vehicle: saline 111 % of control | dose: 9.0 mg/kg/injection, schedule: Q04DX003 (ip), vehicle: saline 123 % of control | dose: 10.0 mg/kg/injection, schedule: Q04DX003 (ip), vehicle: saline sonified 116 % of control | dose: 10.0 mg/kg/injection, schedule: Q04DX003 (ip), vehicle: saline 106 % of control | dose: 16.0 mg/kg/injection, schedule: Q04DX003 (ip), vehicle: saline 111 % of control | dose: 27.0 mg/kg/injection, schedule: Q04DX003 (ip), vehicle: saline 117 % of control | dose: 32.0 mg/kg/injection, schedule: Q04DX003 (ip), vehicle: saline 104 % of control

CCC1(c2ccc(C)cc2)C(=O)NC(=S)NC1=O
inactive: [1] 102 % of control | [2] 94 % of control

c1ccc2cc3cc(N=Nc4ccc5cc6ccccc6cc5c4)ccc3cc2c1
inactive: dose: 100.0 mg/kg/injection, schedule: Q04DX002 (ip), vehicle: saline with Tween-80 108 % of control | dose: 200.0 mg/kg/injection, schedule: Q04DX002 (ip), vehicle: saline with Tween-80 104 % of control | dose: 400.0 mg/kg/injection, schedule: Q04DX002 (ip), vehicle: saline with Tween-80 106 % of control

CC1=C(I)C2(CCCCC2)OC1=O
inactive: dose: 100.0 mg/kg/injection, schedule: Q01DX001 (ip), vehicle: saline with Tween-80 101 % of control | dose: 200.0 mg/kg/injection, schedule: Q01DX001 (ip), vehicle: saline with Tween-80 94 % of control | dose: 400.0 mg/kg/injection, schedule: Q01DX001 (ip), vehicle: saline with Tween-80 93 % of control

O=C1CS(=O)(=O)CN1N1CS(=O)(=O)CC1=O
inactive: [3] 102 % of control | [4] 98 % of control | [5] 98 % of control

O=C1C=C(O)CC2(CCCCC2)C1
inactive: [6] 102 % of control | [7] 100 % of control and 96 % of control | [8] 104 % of control and 105 % of control

COC1=CC(=O)C(CC=C(C)C)=CC1=O
inactive: [6] 100 % of control | [7] 102 % of control | [8] 105 % of control

C(=N\c1nccs1)/c1ccc[nH]1
inactive: [6] 99 % of control | [7] 96 % of control | [8] 100 % of control

N#CC1CCCCC1C1(C#N)CCCCC1Cc1nccc2ccccc12 (stereo not drawn)
inactive: dose: 100.0 mg/kg/injection, schedule: Q04DX003 (ip), vehicle: saline with Tween-80 95 % of control | dose: 200.0 mg/kg/injection, schedule: Q04DX003 (ip), vehicle: saline with Tween-80 100 % of control | dose: 400.0 mg/kg/injection, schedule: Q04DX003 (ip), vehicle: saline with Tween-80 86 % of control

CCOC(=O)ON(C)C(=O)OCC
inactive: [3] 102 % of control | [4] 102 % of control | [5] 107 % of control | dose: 400.0 mg/kg/injection, schedule: Q01DX005 (ip), vehicle: saline with Tween-80 102 % of control

O=[N+]([O-])c1ccc(C2CC(c3ccccc3)=Nc3ccccc3S2)cc1 (stereo not drawn)
inactive: dose: 12.5 mg/kg/injection, schedule: Q01DX009 (ip), vehicle: saline 97 % of control | dose: 25.0 mg/kg/injection, schedule: Q01DX009 (ip), vehicle: saline 92 % of control | dose: 50.0 mg/kg/injection, schedule: Q01DX009 (ip), vehicle: saline 97 % of control

CC1(C)OC(=O)C(=Cc2ccc[nH]2)C(=O)O1
inactive: [6] 98 % of control | [7] 105 % of control | [8] 107 % of control

CCOC(=O)CNC(C)c1ccc(F)cc1 (stereo not drawn)
inactive: dose: 50.0 mg/kg/injection, schedule: Q01DX005 (ip), vehicle: saline 100 % of control | dose: 100.0 mg/kg/injection, schedule: Q01DX005 (ip), vehicle: saline 105 % of control | dose: 200.0 mg/kg/injection, schedule: Q01DX005 (ip), vehicle: saline 103 % of control

Cc1c(-c2ccccc2)nc(N(C)C)oc1=O
inactive: [1] 105 % of control | [2] 101 % of control | dose: 240.0 mg/kg/injection, schedule: Q01DX005 (ip), vehicle: saline with Tween-80 100 % of control

O=C(Nc1ccc(Cl)c(Cl)c1)Nc1ccc(Oc2ccc(Cl)cc2Cl)cc1S(=O)(=O)O
inactive: dose: 100.0 mg/kg/injection, schedule: Q04DX003 (ip), vehicle: Klucel (hydroxypropylcellulose) (HPC) 91 % of control | dose: 200.0 mg/kg/injection, schedule: Q04DX003 (ip), vehicle: Klucel (hydroxypropylcellulose) (HPC) 100 % of control | dose: 400.0 mg/kg/injection, schedule: Q04DX003 (ip), vehicle: Klucel (hydroxypropylcellulose) (HPC) 95 % of control

CCOc1c(N=Nc2ccccc2Cl)c(C)nn1C(=S)S
inactive: dose: 15.0 mg/kg/injection, schedule: Q01DX005 (ip), vehicle: Klucel + Tween-80 95 % of control | dose: 30.0 mg/kg/injection, schedule: Q01DX005 (ip), vehicle: Klucel + Tween-80 100 % of control | dose: 60.0 mg/kg/injection, schedule: Q01DX005 (ip), vehicle: Klucel + Tween-80 96 % of control

O=c1c(OCc2ccccc2)cccn1Cc1ccccc1
inactive: dose: 25.0 mg/kg/injection, schedule: Q01DX009 (ip), vehicle: distilled water + Tween-80 92 % of control | dose: 50.0 mg/kg/injection, schedule: Q01DX009 (ip), vehicle: distilled water + Tween-80 95 % of control | dose: 100.0 mg/kg/injection, schedule: Q01DX009 (ip), vehicle: distilled water + Tween-80 100 % of control | dose: 200.0 mg/kg/injection, schedule: Q01DX009 (ip), vehicle: distilled water + Tween-80 95 % of control | dose: 400.0 mg/kg/injection, schedule: Q01DX009 (ip), vehicle: distilled water + Tween-80 101 % of control

CCOP(=O)(O)C1CCCC(C)[N-]1.CCOP(=O)(O)C1CCCC(C)[N-]1.CCOP(=O)(O)C1CCCC(C)[N-]1.[Ti+3] (stereo not drawn)
inactive: dose: 50.0 mg/kg/injection, schedule: Q01DX001 (ip), vehicle: suspension in saline 94 % of control | dose: 100.0 mg/kg/injection, schedule: Q01DX001 (ip), vehicle: suspension in saline 99 % of control | dose: 200.0 mg/kg/injection, schedule: Q01DX001 (ip), vehicle: suspension in saline 88 % of control

Cc1cc(=O)oc2c(CNC(C(=O)O)C(C)C)c(O)ccc12 (stereo not drawn)
inactive: [9] 91 % of control | dose: 120.0 mg/kg/injection, schedule: Q01DX005 (ip), vehicle: Klucel (hydroxypropylcellulose) (HPC) 91 % of control

c1cc[c]([Bi]([c]2ccccc2)[c]2ccccc2)cc1
inactive: dose: 12.5 mg/kg/injection, schedule: Q01DX009 (ip), vehicle: Klucel (hydroxypropylcellulose) (HPC) 103 % of control | dose: 25.0 mg/kg/injection, schedule: Q01DX009 (ip), vehicle: Klucel (hydroxypropylcellulose) (HPC) 106 % of control | dose: 50.0 mg/kg/injection, schedule: Q01DX009 (ip), vehicle: Klucel (hydroxypropylcellulose) (HPC) 101 % of control and 112 % of control

CCCCNC1c2ccccc2CCC1O (stereo not drawn)
inactive: dose: 100.0 mg/kg/injection, schedule: Q01DX001 (ip), vehicle: Klucel (hydroxypropylcellulose) (HPC) 97 % of control | dose: 100.0 mg/kg/injection, schedule: Q04DX002 (ip), vehicle: Klucel (hydroxypropylcellulose) (HPC) 118 % of control | dose: 200.0 mg/kg/injection, schedule: Q01DX001 (ip), vehicle: Klucel (hydroxypropylcellulose) (HPC) 99 % of control

NC(CS/C(Cl)=C/Cl)C(=O)O (stereo not drawn)
inactive: dose: 12.0 mg/kg/injection, schedule: Q01DX009 (ip), vehicle: saline with Tween-80 117 % of control | dose: 27.0 mg/kg/injection, schedule: Q01DX009 (ip), vehicle: saline with Tween-80 117 % of control

OC1CCCC1NC1CCCCC1 (stereo not drawn)
inactive: dose: 15.0 mg/kg/injection, schedule: Q01DX005 (ip), vehicle: Klucel (hydroxypropylcellulose) (HPC) 102 % of control | dose: 30.0 mg/kg/injection, schedule: Q01DX005 (ip), vehicle: Klucel (hydroxypropylcellulose) (HPC) 102 % of control | [9] 104 % of control
